Some test systems named below: A498 renal; HCC-2998 colon; MDA-MB-435; NCI/ADR-RES ovarian; OVCAR-3 ovarian; OVCAR-5 ovarian; PC-3 prostate; SF-295 CNS; SK-MEL-28 melanoma; SNB-19 CNS.
Common to all, as to assay: NCI tumour cell line growth inhibition, 48 h

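Assay format: 96-well plates, 48-hour exposure. At the GI50, growth is halved. TGI is the concentration that stops growth completely.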

On to `O=Nc1c(O)ccc2ccccc12`, for which the GI50 in the experiment with A498 renal is 16.7 µM; with HCC-2998 colon it was 13.4 µM; with MDA-MB-435, 1.88 µM; in the experiment with NCI/ADR-RES ovarian, 2.92 µM; with OVCAR-3 ovarian, 2.55 µM; with OVCAR-5 ovarian, 1.83 µM. For the same molecule, the GI50 with PC-3 prostate is 1.85 µM; in the experiment with SF-295 CNS it was 11.7 µM; in the experiment with SK-MEL-28 melanoma, 2.8 µM; with SNB-19 CNS it was 14.7 µM. Also, the TGI in the experiment on A498 renal is 31.4 µM; with HCC-2998 colon, 27.9 µM; in the experiment with MDA-MB-435 it was 3.38 µM; with NCI/ADR-RES ovarian, 9.21 µM; with OVCAR-3 ovarian, 9.15 µM; with OVCAR-5 ovarian, 3.44 µM. For the same molecule, the TGI in the experiment on PC-3 prostate came to 8.29 µM; in the experiment with SF-295 CNS it was 24.4 µM; in the experiment on SK-MEL-28 melanoma it was 6.6 µM; in the experiment with SNB-19 CNS it was 28.2 µM.

For `O=C1c2ccccc2C(=O)N1c1ccc(OCCN2CCCCC2)cc1`, the TGI in the experiment on A498 renal, with HCC-2998 colon, in the experiment on MDA-MB-435, in the experiment on NCI/ADR-RES ovarian, with OVCAR-3 ovarian and in the experiment with OVCAR-5 ovarian was above 100 µM in each case. The TGI in the experiment with PC-3 prostate, in the experiment on SF-295 CNS, in the experiment on SK-MEL-28 melanoma and in the experiment on SNB-19 CNS was above 100 µM throughout.

With `O=C1/C(=C/c2cccs2)CCC/C1=C\c1cccs1`, the GI50 in the experiment on A498 renal is 31.4 µM; in the experiment on HCC-2998 colon, above 100 µM; in the experiment with MDA-MB-435 it was above 100 µM; in the experiment with NCI/ADR-RES ovarian, 50.9 µM; in the experiment on OVCAR-3 ovarian it was 23.8 µM; in the experiment on OVCAR-5 ovarian, above 100 µM. Further, the GI50 with PC-3 prostate is 37.7 µM; in the experiment with SF-295 CNS it was 66.5 µM; in the experiment with SK-MEL-28 melanoma, above 72.2 µM; with SNB-19 CNS it was above 54.1 µM. Moreover, the TGI in the experiment with A498 renal, with HCC-2998 colon, with MDA-MB-435, in the experiment on NCI/ADR-RES ovarian, in the experiment with OVCAR-3 ovarian and in the experiment with OVCAR-5 ovarian was above 100 µM throughout. The TGI in the experiment with PC-3 prostate, with SF-295 CNS, in the experiment on SK-MEL-28 melanoma and with SNB-19 CNS was above 100 µM each time.

On to `COc1cc(C2C(C#N)=C(N)OC3=C2C(=O)c2ccccc2C3=O)cc(OC)c1OC` (stereo not given), for which the GI50 with A498 renal was 0.327 µM; in the experiment with HCC-2998 colon it was 2.52 µM; with MDA-MB-435 it was 0.239 µM; in the experiment on NCI/ADR-RES ovarian, 3.23 µM; in the experiment with OVCAR-3 ovarian it was 0.493 µM; in the experiment on OVCAR-5 ovarian, 4.26 µM. The GI50 in the experiment with PC-3 prostate is 0.577 µM; in the experiment with SF-295 CNS it was 8.29 µM; with SK-MEL-28 melanoma it was 6.72 µM; in the experiment on SNB-19 CNS, 11.2 µM. The TGI was 11.8 µM with A498 renal; 18.7 µM with HCC-2998 colon; 0.523 µM in the experiment on MDA-MB-435; 22.5 µM in the experiment on NCI/ADR-RES ovarian; 4.18 µM in the experiment on OVCAR-3 ovarian; 18.6 µM in the experiment with OVCAR-5 ovarian. For the same molecule, the TGI in the experiment on PC-3 prostate was above 100 µM; with SF-295 CNS, 24.8 µM; in the experiment with SK-MEL-28 melanoma, 22.9 µM; in the experiment with SNB-19 CNS it was above 100 µM.

Take `CCNCCNc1cc(-c2ccc(F)cc2)c(C#N)c2nc3ccccc3n12`: the GI50 was 4.79 µM in the experiment with A498 renal; 3.83 µM with HCC-2998 colon; 1.78 µM in the experiment on MDA-MB-435; 6.34 µM in the experiment with NCI/ADR-RES ovarian; 1.97 µM in the experiment with OVCAR-3 ovarian; 4.45 µM with OVCAR-5 ovarian. The GI50 in the experiment on PC-3 prostate was 6.98 µM; in the experiment with SF-295 CNS it was 1.8 µM; with SK-MEL-28 melanoma, 1.86 µM; in the experiment with SNB-19 CNS, 4.94 µM. Also, the TGI with A498 renal worked out at 17.2 µM; with HCC-2998 colon, 14.2 µM; in the experiment with MDA-MB-435, 3.5 µM; in the experiment on NCI/ADR-RES ovarian, 25.1 µM; in the experiment on OVCAR-3 ovarian it was 4.36 µM; in the experiment on OVCAR-5 ovarian it was 15.9 µM. In addition, the TGI with PC-3 prostate amounted to 19.5 µM; with SF-295 CNS, 3.79 µM; with SK-MEL-28 melanoma, 3.59 µM; with SNB-19 CNS, 17.8 µM.

As for `COc1ccc(/C=C2\COc3ccc(-c4ccccc4)cc3C2=O)cc1O`, the GI50 in the experiment on A498 renal is 2.4 µM; in the experiment with HCC-2998 colon, 3.31 µM; in the experiment with MDA-MB-435, 2.03 µM; with NCI/ADR-RES ovarian, 3.39 µM; in the experiment with OVCAR-3 ovarian, 1.76 µM; with OVCAR-5 ovarian, 4.13 µM. For the same molecule, the GI50 in the experiment with PC-3 prostate is 3.41 µM; with SF-295 CNS, 4.4 µM; with SK-MEL-28 melanoma it was 1.88 µM; with SNB-19 CNS it was 3.38 µM. In addition, the TGI was determined as 6.1 µM with A498 renal; 10.3 µM with HCC-2998 colon; 15.9 µM in the experiment with MDA-MB-435; 14 µM in the experiment on NCI/ADR-RES ovarian; 4.97 µM in the experiment with OVCAR-3 ovarian; 14.7 µM with OVCAR-5 ovarian. The TGI with PC-3 prostate is above 100 µM; in the experiment with SF-295 CNS, 21.7 µM; in the experiment on SK-MEL-28 melanoma, 3.96 µM; with SNB-19 CNS, 17.2 µM.

Take `CC#CC(=O)N1CCC[C@H]1c1nc(-c2ccc(C(=O)Nc3ccccn3)cc2)c2c(N)nccn12`: the GI50 with A498 renal was 26.4 µM; in the experiment on HCC-2998 colon, above 100 µM; in the experiment with MDA-MB-435, 44.1 µM; in the experiment with NCI/ADR-RES ovarian, above 100 µM; in the experiment on OVCAR-3 ovarian, 37.2 µM; with OVCAR-5 ovarian, above 100 µM. Also, the GI50 in the experiment with PC-3 prostate was above 84.8 µM; in the experiment with SF-295 CNS, above 86.1 µM; in the experiment on SK-MEL-28 melanoma, 47.3 µM; in the experiment with SNB-19 CNS, above 79.9 µM. Also, the TGI was above 81.9 µM in the experiment on A498 renal; above 100 µM with HCC-2998 colon; above 100 µM in the experiment with MDA-MB-435; above 100 µM in the experiment on NCI/ADR-RES ovarian; above 100 µM with OVCAR-3 ovarian; above 100 µM in the experiment with OVCAR-5 ovarian. The TGI in the experiment on PC-3 prostate, in the experiment on SF-295 CNS, in the experiment with SK-MEL-28 melanoma and in the experiment with SNB-19 CNS was above 100 µM in each case.

Regarding `O=C1c2cc(CCl)sc2C(=O)c2ccsc21`, the TGI in the experiment with A498 renal worked out at 3.01 µM; with HCC-2998 colon it was 3.04 µM; in the experiment with MDA-MB-435, 0.0339 µM; in the experiment on NCI/ADR-RES ovarian it was 0.468 µM; in the experiment with OVCAR-3 ovarian, 0.52 µM; in the experiment with OVCAR-5 ovarian, 3.31 µM. The TGI in the experiment with PC-3 prostate came out at 0.839 µM; with SF-295 CNS it was 0.245 µM; with SK-MEL-28 melanoma it was 0.149 µM; in the experiment with SNB-19 CNS it was 0.527 µM.

With `Cn1ccnc1C(=O)/C=C/c1ccc(C(=O)Nc2nc3ccccc3[nH]2)cc1`, the GI50 in the experiment with A498 renal was 4.71 µM; in the experiment with HCC-2998 colon, 10.3 µM; with MDA-MB-435, 2.87 µM; with NCI/ADR-RES ovarian, 4.95 µM; with OVCAR-3 ovarian, 0.894 µM; with OVCAR-5 ovarian, 5.6 µM. Besides, the GI50 in the experiment on PC-3 prostate was 3.78 µM; in the experiment with SF-295 CNS it was above 25 µM; with SK-MEL-28 melanoma, above 25 µM; in the experiment with SNB-19 CNS it was 9.75 µM. Besides, the TGI is above 25 µM in the experiment on A498 renal; above 25 µM in the experiment with HCC-2998 colon; 19.8 µM with MDA-MB-435; above 25 µM with NCI/ADR-RES ovarian; 17.2 µM with OVCAR-3 ovarian; above 25 µM in the experiment on OVCAR-5 ovarian. Also, the TGI in the experiment on PC-3 prostate, in the experiment on SF-295 CNS, in the experiment on SK-MEL-28 melanoma and in the experiment with SNB-19 CNS was above 25 µM each time.

With `COc1ccc(/C=C2\N=C3SC=C(N)N3C2=O)cc1`, the GI50 in the experiment with A498 renal is 0.177 µM; with HCC-2998 colon, 1.65 µM; in the experiment on MDA-MB-435, 0.808 µM; in the experiment with NCI/ADR-RES ovarian it was 2.76 µM; in the experiment with OVCAR-3 ovarian, 1.14 µM; in the experiment with OVCAR-5 ovarian, 2.13 µM. In addition, the GI50 in the experiment on PC-3 prostate is 0.559 µM; in the experiment on SF-295 CNS it was 0.642 µM; with SK-MEL-28 melanoma, 1.29 µM; in the experiment with SNB-19 CNS, 3.32 µM. The TGI in the experiment with A498 renal stood at 1.37 µM; in the experiment with HCC-2998 colon, 3.28 µM; in the experiment with MDA-MB-435, 6.06 µM; in the experiment with NCI/ADR-RES ovarian it was 18.6 µM; in the experiment with OVCAR-3 ovarian, 2.98 µM; in the experiment on OVCAR-5 ovarian it was 12 µM. The TGI with PC-3 prostate worked out at 3.57 µM; in the experiment with SF-295 CNS, 14.2 µM; in the experiment with SK-MEL-28 melanoma, 4.75 µM; in the experiment with SNB-19 CNS, 17 µM.

For `NC(CSC(c1ccccc1)(c1ccccc1)c1ccc2ccccc2c1)C(=O)O` (stereo not given), the GI50 in the experiment with A498 renal is 0.0529 µM; with HCC-2998 colon it was 0.0374 µM; with MDA-MB-435, 0.018 µM; with NCI/ADR-RES ovarian, 0.989 µM; in the experiment with OVCAR-3 ovarian it was 0.0287 µM; in the experiment on OVCAR-5 ovarian it was 0.323 µM. The GI50 in the experiment on PC-3 prostate was 0.0628 µM; in the experiment with SF-295 CNS, 0.0246 µM; in the experiment on SK-MEL-28 melanoma, 0.38 µM; in the experiment with SNB-19 CNS, 0.066 µM. The TGI in the experiment with A498 renal was found to be 3.79 µM; in the experiment with HCC-2998 colon it was 0.496 µM; in the experiment with MDA-MB-435, 0.0363 µM; in the experiment with NCI/ADR-RES ovarian, 3.64 µM; with OVCAR-3 ovarian it was 0.0992 µM; with OVCAR-5 ovarian, 16.9 µM. Further, the TGI with PC-3 prostate is above 82.7 µM; in the experiment on SF-295 CNS, 2.64 µM; in the experiment on SK-MEL-28 melanoma it was 16 µM; in the experiment with SNB-19 CNS it was 17.3 µM.

As for `CC1(C)OCN(c2ccc(Cl)cc2)Cn2c1nc1ccccc12`, the TGI in the experiment on A498 renal is above 100 µM; in the experiment with HCC-2998 colon, above 80.9 µM; in the experiment with MDA-MB-435, above 100 µM; in the experiment with NCI/ADR-RES ovarian, above 100 µM; in the experiment on OVCAR-3 ovarian, above 100 µM; in the experiment with OVCAR-5 ovarian, above 100 µM. For the same molecule, the TGI in the experiment with PC-3 prostate, with SF-295 CNS, in the experiment on SK-MEL-28 melanoma and in the experiment with SNB-19 CNS was above 100 µM throughout.
